Laboratory results published in PMC6494957 (Frontiers in Microbiology, 2019).
Values after ≈ are worked out from the molar mass of the structure shown.

Key:
P. aeruginosa ATCC 27853 = test: microbe, parasite or virus in culture
Experimental: (§1) The MIC for ampicillin or gentamicin against each isolate was determined for each test to serve as an internal quality control. The MICs of isolates were determined by visual reading and using an EnSpire Multimode Plate Reader 2300 atA600nm.
(§2) Briefly, antimicrobial stock solutions for robenidine and PMBN were prepared at a concentration of 12.8 mg/ml in DMSO. […] A 1 μl aliquot of the first compound from each combination was dispensed along the abscissa (from row A to G) of the 96-well microplate, while the second compound was dispensed along the ordinate (from column 12 to column 3) using an electronic multichannel pipette followed by 89 μl of LB broth. Each well of the plate was inoculated with an aliquot of 10 μl bacterial suspension at a concentration of 1-5 × 10^6 colony forming units (CFU) per ml. Subsequently, the plate was incubated at 37°C for 24 h. The fractional inhibitory concentration index (FICI) described the results of the combinations, and was calculated utilizing the following formula:
(§3) DRI = MIC of drug alone/MIC of drug in combination

E. coli ATCC 11229 = test: microbe, parasite or virus in culture
Experimental: as §1, §2, §3

[1] = system: A. calcoaceticus (human clinical isolate); test: microbe, parasite or virus in culture
Experimental: as §1, §2, §3

P. mirabilis ATCC 43071 = test: microbe, parasite or virus in culture
Experimental: as §1, §2, §3

E. coli ATCC 25922 = test: microbe, parasite or virus in culture
Experimental: as §1, §2, §3

K. pneumoniae ATCC 13883 = test: microbe, parasite or virus in culture
Experimental: as §1, §2, §3

A. baumannii ATCC 19606 = test: microbe, parasite or virus in culture
Experimental: as §1, §2, §3

A. baumannii ATCC 12457 = test: microbe, parasite or virus in culture
Experimental: as §1, §2, §3

HaCaT cell line = test: In vitro cytotoxicity, WST-1; format: cell-based; conditions: Homo sapiens, 10% FBS, read-out: IC50, single agent
Experimental: Cells were maintained in Dulbecco’s modified Eagle’s medium (DMEM) with 10% fetal bovine serum (FBS) and 1% PenStrep (100 U/mL Penicillin and 100 μg/mL Streptomycin) at 37°C with 5% CO2. Cells were serially passaged at ∼80% confluence ∼ every 4 days. Assays were performed in duplicate in 96 well plates seeded with ∼25,000 cells per well. […] Briefly, the antimicrobials were prepared by performing a twofold serial dilution at 100× of tested concentration in DMSO. Subsequently, a 1 μl aliquot of each concentration was transferred to a sterile 96-well plate containing fresh DMEM with either 10% FBS. After mixing four times, the media aliquots with different concentrations of antimicrobial were transferred to each well of the 96-well plate seeded with cells, using wells containing 1–2% DMSO only as control. To determine the effect of FBS on the cytotoxicity of each compound, DMEM with 40% FBS containing different concentrations of antimicrobial was prepared as described above. After 24 h of exposure, WST-1 reagent (Cell Proliferation Assay reagent, Roche) at a concentration of 10% was added to each well. Absorbance at A450 nm on a Multiskan Ascent 354 Spectrophotometer (Labsystems) was measured after 1 h of incubation. The IC50 value was determined for each compound against each cell line via non-linear regression (three parameters) using GraphPad Prism v6 software.

[2] = system: preformed biofilms of two clinical isolates of S. pseudintermedius; test: Antibiofilm susceptibility (MBEC device) and biofilm checkerboard; format: cell-based, Staphylococcus pseudintermedius; conditions: S. pseudintermedius biofilms; up to 128 μg/ml; 24 h
Experimental: Briefly, biofilms of P. aeruginosa PA01, two clinical isolates of P. aeruginosa isolates and two clinical isolates of S. pseudintermedius were formed by inoculating 150 μl of 10^7 CFU/ml of each bacterial suspension in the MBEC^TM device. The inoculated device was aerobically incubated on an orbital shaker at 37°C (OM11, Ratek Instruments Pty Ltd., Australia) for 24 h to produce equivalent (Uniform) biofilms on all pegs. […] Following antimicrobial challenge, the biofilms were rinsed twice with phosphate buffered saline (pH = 7) and disrupted via sonication (Soniclean, Model 160TD, Australia) for 10 min into the recovery medium. Viable cell counts were determined for recovered cells (colony-forming units per peg) after preparing a serial dilution and plating 10 μl in duplicates of each dilution onto plate count agar. Viable counts were then expressed as a percentage of the mean CFU of growth controls. MBEC was defined as the lowest concentration of antimicrobial agent that eradicates the biofilms recovered from the antimicrobial challenge.
Briefly, the MBEC^TM High-throughput assay system (MBEC^TM BioProducts, Innovotech, Canada) was used for the preparation of Gram-positive and Gram-negative biofilm producing bacteria as described above for antibiofilm susceptibility testing. […] Subsequently, the plate was incubated at 37°C for 24 h.

[3] = P. aeruginosa ATCC 27853, concentration of the labelled component
[4] = E. coli ATCC 11229, concentration of the labelled component
[5] = A. calcoaceticus human clinical isolate, concentration of the labelled component
[6] = E. coli ATCC 25922, concentration of the labelled component
[7] = K. pneumoniae ATCC 13883, concentration of the labelled component
[8] = A. baumannii ATCC 19606, concentration of the labelled component
[9] = A. baumannii ATCC 12457, concentration of the labelled component

Structure (SMILES): N=C(N/N=C/c1ccc(Cl)cc1)N/N=C/c1ccc(Cl)cc1 [ROB, robenidine]
- MIC, single drug (P. aeruginosa ATCC 27853; P. aeruginosa ATCC 27853): >256 µg/mL
- DRI EDTA:ROB (P. aeruginosa ATCC 27853; P. aeruginosa ATCC 27853, DRI of the labelled component): 256
- MIC in combination EDTA:ROB (P. aeruginosa ATCC 27853; [3]): 1.25 µg/mL
- MIC in combination PMBN:ROB (P. aeruginosa ATCC 27853; [3]): 1 µg/mL
- MIC (P. aeruginosa ATCC 27853; Pseudomonas aeruginosa, ATCC27853, read-out: MIC, single drug): > 256 µg/mL
- MIC, single drug (E. coli ATCC 11229; E. coli ATCC 11229): >256 µg/mL
- DRI EDTA:ROB (E. coli ATCC 11229; E. coli ATCC 11229, DRI of the labelled component): 32
- MIC in combination EDTA:ROB (E. coli ATCC 11229; [4]): 8 µg/mL
- MIC in combination PMBN:ROB (E. coli ATCC 11229; [4]): 8 µg/mL
- MIC (E. coli ATCC 11229; Escherichia coli, ATCC11229, read-out: MIC, single drug): > 256 µg/mL
- DRI EDTA:ROB ([1]; A. calcoaceticus human clinical isolate, DRI of the labelled component): 32
- MIC in combination EDTA:ROB [1, 5]: 0.125 µg/mL
- MIC in combination PMBN:ROB [1, 5]: 0.5 µg/mL
- MIC ([1]; Acinetobacter calcoaceticus, read-out: MIC, single drug): 4 µg/mL
- MIC, single drug (P. mirabilis ATCC 43071; P. mirabilis ATCC 43071): >256 µg/mL
- DRI EDTA:ROB (P. mirabilis ATCC 43071; P. mirabilis ATCC 43071, DRI of the labelled component): 256
- MIC in combination EDTA:ROB (P. mirabilis ATCC 43071; P. mirabilis ATCC 43071, concentration of the labelled component): 1.25 µg/mL
- MIC (P. mirabilis ATCC 43071; Proteus mirabilis, ATCC43071, read-out: MIC, single drug): > 256 µg/mL
- MIC, single drug (E. coli ATCC 25922; E. coli ATCC 25922): >256 µg/mL
- DRI EDTA:ROB (E. coli ATCC 25922; E. coli ATCC 25922, DRI of the labelled component): 64
- MIC in combination EDTA:ROB (E. coli ATCC 25922; [6]): 4 µg/mL
- MIC in combination PMBN:ROB (E. coli ATCC 25922; [6]): 8 µg/mL
- MIC (E. coli ATCC 25922; Escherichia coli, ATCC25922, read-out: MIC, single drug): > 256 µg/mL
- MIC, single drug (K. pneumoniae ATCC 13883; K. pneumoniae ATCC 13883): >256 µg/mL
- DRI EDTA:ROB (K. pneumoniae ATCC 13883; K. pneumoniae ATCC 13883, DRI of the labelled component): 2
- MIC in combination EDTA:ROB (K. pneumoniae ATCC 13883; [7]): 128 µg/mL
- MIC in combination PMBN:ROB (K. pneumoniae ATCC 13883; [7]): 4 µg/mL
- MIC (K. pneumoniae ATCC 13883; Klebsiella pneumoniae, ATCC13883, read-out: MIC, single drug): > 256 µg/mL
- DRI EDTA:ROB (A. baumannii ATCC 19606; A. baumannii ATCC 19606, DRI of the labelled component): 8
- MIC in combination EDTA:ROB (A. baumannii ATCC 19606; [8]): 4 µg/mL
- MIC in combination PMBN:ROB (A. baumannii ATCC 19606; [8]): 2 µg/mL
- MIC (A. baumannii ATCC 19606; Acinetobacter baumannii, ATCC19606, read-out: MIC, single drug): 32 µg/mL
- DRI EDTA:ROB (A. baumannii ATCC 12457; A. baumannii ATCC 12457, DRI of the labelled component): 32
- MIC in combination EDTA:ROB (A. baumannii ATCC 12457; [9]): 2 µg/mL
- MIC in combination PMBN:ROB (A. baumannii ATCC 12457; [9]): 2 µg/mL
- MIC (A. baumannii ATCC 12457; Acinetobacter baumannii, ATCC12457, read-out: MIC, single drug): 64 µg/mL
- IC50 (HaCaT cell line): 14 µg/mL (≈ 41.9 µM)
- antibiofilm activity [2]: did not show any antibiofilm activity
